The source of these data is patent EP3613735A1, “NOVEL SIRT 1 ACTIVATOR AND MEDICINAL USE THEREOF” (Pusan National University Industry - University Cooperation …, priority 2017, dated 2018).

Experiment [1] relates to db/db mice. Nature of the experiment: Serum insulin by ELISA in obese animal model. It is filed as in vivo. The following applies: oral 5 mg/kg daily, compared with db/db mouse group. As to the method:
The metabolic disease control ability of Compound 32u was analyzed using db/db mice lacking an appetite-regulating hormone leptin receptor as an obese animal model. Compound 32u was orally administered to db/db mice (9 weeks old) at a concentration of 5 mg/kg daily for 4 weeks. Next, the blood insulin concentration was measured using an enzyme-linked immunosorbent assay (ELISA). Mouse insulin ELISA (TMB) kit ([…], Japan) was used, and serum separated from animal blood was added to a 96 well plate coated with insulin primary antibody and after reacting, the secondary antibody and the substrate were added, reacted and the changed color was measured by an absorbance meter. The metabolic disease control ability of Compound 70c was analyzed using db/db mice lacking an appetite-regulating hormone leptin receptor as an obese animal model. Compound 70c was orally administered to db/db mice (9 weeks old) at a concentration of 5 mg/kg daily for 4 weeks. Next, the blood insulin concentration was measured using an enzyme-linked immunosorbent assay (ELISA). Mouse insulin ELISA (TMB) kit ([…], Japan) was used, and serum separated from animal blood was added to a 96 well plate coated with insulin primary antibody and after reacting, the secondary antibody and the substrate were added, reacted and the changed color was measured by an absorbance meter.
A general note: In an ELISA, binding on a coated surface is turned into a signal by an enzyme label.

The next experiment relates to skin fibroblasts. Nature of the experiment: β-galactosidase staining of UVB-induced cell aging. It counts as cell-based. The following applies: UVB of 12 mJ/cm^2; pretreated at 1 µM for 24 hours. The method, then: β-galactosidase is used to induce cellular aging of fibroblasts, which are the main cells of the epidermal layer of skin, by using UVB, the most important environmental factor in skin aging, as the most common marker for cell aging and β-galactosidase staining was performed to analyze the cell aging protection of Compound 32u. […]

A further experiment concerns CPT1 and ACOX1. The experiment can be described thus: Liver mRNA expression of fat oxidation related genes, quantitative real-time PCR. It counts as in vivo, mouse. The following applies: db/db mice, oral 5 mg/kg daily for 4 weeks, treated vs db/db group. As to the method: Since obesity and insulin resistance are representative diseases directly related to the development of non-alcoholic fatty liver, the improvement effect of Compound 32u on fatty liver was analyzed. Compound 32u was orally administered to db/db mice (9 weeks old) at a concentration of 5 mg/kg daily for 4 weeks. First, the accumulation of fat in the liver, the most representative phenotype, was measured. Briefly, about 50 mg of liver was quantified in cold phosphate buffered saline (PBS) or 0.9% sodium chloride (NaCl) and crushed, followed by treating with mixed solvent of chloroform and methanol (MeOH) in a volume ratio of 2:1 and reacted for 2 hours. […] Thereafter, the amount of neutral fat was measured by absorbance using a neutral fat measurement kit (Stanbio laboratory, TX USA). In order to confirm the corresponding mechanism, mRNA expression of genes related to fat synthesis and degradation was analyzed. […] For the synthesized cDNA, a quantative real-time polymerase chain reaction (quantative real-time PCR) was performed to target the desired gene as a primer and quantify it in real time. Since obesity and insulin resistance are representative diseases directly related to the development of non-alcoholic fatty liver, the improvement effect of Compound 70c on fatty liver was analyzed. […] First, the accumulation of fat in the liver, the most representative phenotype, was measured. […]

In experiment [2] the test system is db/db mice. The experiment can be described thus: Glucose tolerance test and fasting blood glucose in obese animal model. It is filed as in vivo, mouse. The following applies: for fasting blood glucose: oral 5 mg/kg daily, compared to db/db mouse group; for glucose tolerance (blood glucose concentration): three weeks after oral administration of 5 mg/kg daily, glucose 2 g/kg intraperitoneally after 12 hours fasting. As to the method: The metabolic disease control ability of Compound 32u was analyzed using db/db mice lacking an appetite-regulating hormone leptin receptor as an obese animal model. Compound 32u was orally administered to db/db mice (9 weeks old) at a concentration of 5 mg/kg daily for 4 weeks. Three weeks after oral administration of Compound 32u, a glucose tolerance test was performed. Mice were fasted for 12 hours or more, and glucose (2 g/kg) was injected intraperitoneally, and blood from the tail of the mouse was measured for blood glucose at each time using a glucometer ([…]). The metabolic disease control ability of Compound 70c was analyzed using db/db mice lacking an appetite-regulating hormone leptin receptor as an obese animal model. Compound 70c was orally administered to db/db mice (9 weeks old) at a concentration of 5 mg/kg daily for 4 weeks. Three weeks after oral administration of Compound 70c, a glucose tolerance test was performed. Mice were fasted for 12 hours or more, and glucose (2 g/kg) was injected intraperitoneally, and blood from the tail of the mouse was measured for blood glucose at each time using a glucometer ([…]).

In experiment [3] the test system is db/db mice. The experiment can be described thus: Dietary intake and weight in obese animal model. It counts as in vivo, mouse. The following applies: oral 5 mg/kg daily for 4 weeks, compared to db/db mice group. The method, then:
The metabolic disease control ability of Compound 32u was analyzed using db/db mice lacking an appetite-regulating hormone leptin receptor as an obese animal model. Compound 32u was orally administered to db/db mice (9 weeks old) at a concentration of 5 mg/kg daily for 4 weeks. The metabolic disease control ability of Compound 70c was analyzed using db/db mice lacking an appetite-regulating hormone leptin receptor as an obese animal model. Compound 70c was orally administered to db/db mice (9 weeks old) at a concentration of 5 mg/kg daily for 4 weeks.

`Cl.O=C(Nc1ccccc1-c1cc2ccc(CN3CCNCC3)cc2o1)c1ccc2ccccc2c1` [Compound 32u, N-(2-(6-(Piperazin-1-ylmethyl)benzofuran-2-yl)phenyl)-2-naphthamide hydrochloride]: in the experiment with db/db mice [1], the serum insulin concentration entry is recorded as “reduced”. For the same compound, in the experiment on skin fibroblasts, the β-galactosidase staining entry is “reduced”. In addition, the “expression of fat oxidation related genes (CPT1 and ACOX1)” value in the experiment with CPT1 and ACOX1 is given as “not significantly different”. Further, in the experiment with db/db mice [2], the fasting blood glucose entry is on record as “reduced” and the “glucose tolerance (blood glucose concentration)” value was “glucose tolerance was restored”. Also, in the experiment on db/db mice [3], the dietary intake result is “no difference” and the weight entry is “no difference”.

Consider `O=C(Nc1ccccc1-c1nc2cc(CN3CCN(C4CCCCC4)CC3)ccc2o1)c1ccc2ccccc2c1` [Compound 70c, N-(2-(5-((4-Cyclohexylpiperazin-1-yl)methyl)benzo[d]oxazol-2-yl)phenyl)-2-naphthamide], for which, in the experiment with db/db mice [1], the serum insulin concentration result is on record as “reduced”. The β-galactosidase staining entry with skin fibroblasts is listed as “reduced”. The “expression of fat oxidation related genes (CPT1 and ACOX1)” value with CPT1 and ACOX1 is “not significantly different”. Also, in the experiment with db/db mice [2], the fasting blood glucose entry is given as “reduced” and the “glucose tolerance (blood glucose concentration)” value was “glucose tolerance was restored”. In addition, in the experiment on db/db mice [3], the dietary intake result is “no difference” and the weight result is given as “no difference”.
